Source: patent US5916892A, “Trans cyclopentanyl deazaadenyl analogs useful as immunosuppressants” (Hoechst Marion Roussel, Inc., priority 1997, dated 1999)
Counter-ions that a name gives are not always drawn.

How the values were obtained:
[1] = tested on: endotoxin-induced septic shock; test: Mouse endotoxin lethality model (D-galactosamine and LPS); type: in vivo, CF1 mice; conditions: 100 mg/kg i.p., pretreated at t=-1 hr; death observed over 8-72 hours
Method: Using the method of Silverstein, (J. Exp. Med. 173, 357 (1991)) a mouse endotoxin lethality model may be used to determine if a compound of formula (1) has the ability to inhibit endotoxin-induced septic shock which is dependent on the production of Tumor Necrosis Factor-α (TNF-α). CF1 mice pretreated at time (t)=-1 hr with drug are challenged with 18 mg of D-glactoseamine and 50 ng of LPS, then observed for death over an 8-72 hour period.

[2] = tested on: Rat macrophage antigen presentation and the subsequent production of Interleukin-2; test: Regulation of macrophage antigen presentation (mBSA) to rat T-cell hybridoma, Interleukin-2 measured; type: cell-based, Lewis (LEW/N) rat
Method: Using the method of Ku (Cellular Immunology 130,(1990)) and a Lewis (LEW/N) rat T-cell hybridoma reactive with the protein methylated bovine serum albumin (mBSA), the ability of a compound of formula (1) to regulate M.phi. antigen presentation in vitro may be measured. Peritoneal macrophages obtained from LEW/N rats are plated into tissue culture and treated with 100 ug of mBSA and drug. A control is prepared similarly. After a period of 18 hours the cells are washed and incubated with the T-cell hybridoma for an additional 12 hours. Supernatants from these cultures are obtained and measured for content of Interleukin-2, a T-cell derived lymphokine which is produced by activated T-cells.

SMILES: Nc1ncnc2c1ncn2[C@@H]1CC[C@@H](O)C1 [(1R,3R)-TRANS-1(9-ADENYL)CYCLOPENTAN-3-OL HYDROCHLORIDE]
- protection against endotoxin lethality [1]: protects against endotoxin lethality
- T-cell activation / antigen presentation and Interleukin-2 production (in words) ([2]; 0.1 to 100 uM): inhibits T-cell activation
- inhibition at 0.1 µM ([2]; Rattus norvegicus, Macrophage, In Vitro Concentration 0.1 uM, IL-2 production): 7.6%
- inhibition at 1 µM ([2]; Rattus norvegicus, Macrophage, In Vitro Concentration 1.0 uM, IL-2 production): 30.9%
- inhibition at 10 µM ([2]; Rattus norvegicus, Macrophage, In Vitro Concentration 10.0 uM, IL-2 production): 48.7%
- inhibition at 100 µM ([2]; Rattus norvegicus, Macrophage, In Vitro Concentration 100.0 uM, IL-2 production): 55.3%
